Test results taken from patent US10174037B2, “Dihydropyrazolopyrimidinone compounds as PDE2 inhibitors” (Merck Sharp & Dohme Corp., priority 2015, dated 2019).

Target: human PDE2A1 (Homo sapiens (Human), UniProt O00408)
Assay: PDE selectivity IMAP FP assay, human PDE2A1
Format: biochemical
Conditions: Human PDE2; Lab B; read-out: Human PDE2 Ki (nM) Lab B
Experimental: Selectivity for PDE2, as compared to other PDE families, was assessed using the IMAP® technology. Human PDE10A2 enzyme was prepared from cytosolic fractions of transiently transfected HEK cells.
A Labcyte POD 810 (Labcyte, Sunnyvale, Calif.) was used to dispense 200 nL from each well of the titration plate to make eleven copies of the assay plate for each titration, one copy for each PDE enzyme. A solution of each enzyme (dilution from aliquots, sufficient to produce 20% substrate conversion) and a separate solution of FAM-labeled cAMP or FAM-labeled cGMP from Molecular Devices (Sunnyvale, Calif., product # R7506 or cGMP#R7508), at a final concentration of 50 nM were made in the assay buffer (10 mM Tris HCl, pH 7.2, 10 mM MgCl2, 0.05% NaN3 0.01% Tween-20, and 1 mM DTT). Note that the substrate for PDE2 is 50 nM FAM cAMP containing 1000 nM of cGMP. The enzyme and the substrate were then added to the assay plates in two consecutive additions of 10 μL and then shaken to mix. The reaction was allowed to proceed at room temperature for 60 minutes. A binding solution was then made from the kit components, comprised of 80% Solution A, 20% Solution B and binding reagent at a volume of 1/600 the total binding solution. The enzymatic reaction was stopped by addition of 60 μL of the binding solution to each well of the assay plate. […] The plates were incubated at room temperature for one hour, then the parallel and perpendicular fluorescence was measured using a Tecan Genios Pro plate reader (Tecan, Switzerland). […] The intrinsic PDE2 inhibitory activity of a compound which may be used in accordance with the present invention may be determined by these assays. […]
The PDE2 Ki is a measure of the ability of the test compound to inhibit the action of the PDE2 enzyme.

Sequence of human PDE2A1 (O00408 other isoform, or with tags, fused parts or gaps): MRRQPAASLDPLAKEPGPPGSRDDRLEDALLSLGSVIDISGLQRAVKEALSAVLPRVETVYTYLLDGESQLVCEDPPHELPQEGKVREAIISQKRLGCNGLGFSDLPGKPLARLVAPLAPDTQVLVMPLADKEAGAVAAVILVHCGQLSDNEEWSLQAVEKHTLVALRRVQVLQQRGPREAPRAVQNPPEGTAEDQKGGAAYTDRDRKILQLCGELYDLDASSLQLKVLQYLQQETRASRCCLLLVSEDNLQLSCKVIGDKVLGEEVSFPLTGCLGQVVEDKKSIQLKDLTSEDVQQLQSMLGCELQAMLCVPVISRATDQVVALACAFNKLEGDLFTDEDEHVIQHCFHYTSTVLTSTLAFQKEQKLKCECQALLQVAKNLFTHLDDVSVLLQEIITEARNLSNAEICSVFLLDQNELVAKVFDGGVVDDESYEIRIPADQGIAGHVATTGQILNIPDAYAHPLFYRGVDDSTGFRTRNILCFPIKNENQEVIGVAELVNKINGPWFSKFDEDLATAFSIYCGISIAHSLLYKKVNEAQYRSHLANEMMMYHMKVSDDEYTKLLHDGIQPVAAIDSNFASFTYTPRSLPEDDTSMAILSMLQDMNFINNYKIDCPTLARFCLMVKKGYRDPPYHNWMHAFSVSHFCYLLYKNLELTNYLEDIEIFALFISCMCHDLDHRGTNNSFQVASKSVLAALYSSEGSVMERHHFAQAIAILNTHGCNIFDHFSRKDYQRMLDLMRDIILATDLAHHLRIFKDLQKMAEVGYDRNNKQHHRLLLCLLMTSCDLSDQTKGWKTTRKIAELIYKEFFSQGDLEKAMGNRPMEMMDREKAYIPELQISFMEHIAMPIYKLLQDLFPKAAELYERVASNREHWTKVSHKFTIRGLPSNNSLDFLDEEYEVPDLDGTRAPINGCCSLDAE

SMILES	Ki
CC(c1ccc(C(F)(F)F)cc1)n1nc(CC(F)F)c2c(=O)[nH]c(O)nc21 (single isomer, unassigned) [Example 291]	2.5 nM
CC(c1ccc(C(F)(F)F)cc1)n1nc(CC(F)F)c2c(=O)[nH]c(O)nc21 (single isomer, unassigned) [Example 292]	137 nM
CC(c1ccc(C(F)(F)F)cc1F)n1nc(C(F)(F)F)c2c(=O)[nH]c(O)nc21 (single isomer, unassigned) [Example 305]	1.9 nM
CC(c1ccc(C(F)(F)F)cc1F)n1nc(C(F)(F)F)c2c(=O)[nH]c(O)nc21 (single isomer, unassigned) [Example 306]	330 nM
CC(c1ccc(OC(F)(F)F)cc1F)n1nc(C(F)(F)F)c2c(=O)[nH]c(O)nc21 (single isomer, unassigned) [Example 307, (R)- or (S)-1-{1-[2-Fluoro-4-(trifluoro-methoxy)phenyl]ethyl}-6-hydroxy-3-(trifluoromethyl)-1,5-dihydro-4H-pyrazolo-[3,4-d]pyrimidin-4-one]	10 nM
CC(c1ccc(OC(F)(F)F)cc1F)n1nc(C(F)(F)F)c2c(=O)[nH]c(O)nc21 (single isomer, unassigned) [Example 308, (S)- or (R)-1-{1-[2-Fluoro-4-(trifluoro-methoxy)phenyl]ethyl}-6-hydroxy-3-(trifluoromethyl)-1,5-dihydro-4H-pyrazolo[3,4-d]pyrimidin-4-one]	213 nM
CC(c1ccc(OC(F)(F)F)c(F)c1)n1nc(C(F)(F)F)c2c(=O)[nH]c(O)nc21 (single isomer, unassigned) [Example 309, (R)- or (S)-1-{1-[3-Fluoro-4-(trifluoromethoxy)phenyl]ethyl}-6-hydroxy-3-(trifluoromethyl)-1,5-dihydro-4H-pyrazolo[3,4-d]pyrimidin-4-one]	2.7 nM
CC(c1ccc(OC(F)(F)F)c(F)c1)n1nc(C(F)(F)F)c2c(=O)[nH]c(O)nc21 (single isomer, unassigned) [Example 310, (S)- or (R)-1-{1-[3-Fluoro-4-(trifluoromethoxy)phenyl]ethyl}-6-hydroxy-3-(trifluoromethyl)-1,5-dihydro-4H-pyrazolo[3,4-d]pyrimidin-4-one]	36 nM
CC(c1ccc(S(F)(F)(F)(F)F)cc1)n1nc(C(F)(F)F)c2c(=O)[nH]c(O)nc21 (single isomer, unassigned) [Example 311, (R)- or (S)-6-Hydroxy-1-{1-[4-(pentafluoro-lambda~6-sulfanyl)phenyl]ethyl}-3-(trifluoromethyl)-1,5-dihydro-4H-pyrazolo[3,4-d]pyrimidin-4-one]	4.9 nM
CC(c1ccc(S(F)(F)(F)(F)F)cc1)n1nc(C(F)(F)F)c2c(=O)[nH]c(O)nc21 (single isomer, unassigned) [Example 312, (S)- or (R)-6-Hydroxy-1-{1-[4-(pentafluoro-lambda~6-sulfanyl)phenyl]ethyl}-3-(trifluoromethyl)-1,5-dihydro-4H-pyrazolo[3,4-d]pyrimidin-4-one]	265 nM
CC(c1ccc(C(F)(F)F)c(F)c1)n1nc(C(F)(F)F)c2c(=O)[nH]c(O)nc21 (single isomer, unassigned) [Example 313, (R)- or (S)-1-{1-[3-Fluoro-4-(trifluoromethyl)phenyl]ethyl}-6-hydroxy-3-(trifluoromethyl)-1,5-dihydro-4H-pyrazolo[3,4-d]pyrimidin-4-one]	2.2 nM
CC(c1ccc(C(F)(F)F)c(F)c1)n1nc(C(F)(F)F)c2c(=O)[nH]c(O)nc21 (single isomer, unassigned) [Example 314, (S)- or (R)-1-{1-[3-Fluoro-4-(trifluoromethyl)phenyl]ethyl}-6-hydroxy-3-(trifluoromethyl)-1,5-dihydro-4H-pyrazolo[3,4-d]pyrimidin-4-one]	106 nM
CC(c1ccc(OC(F)F)cc1)n1nc(C(F)(F)F)c2c(=O)[nH]c(O)nc21 (single isomer, unassigned) [Example 315, (R)- or (S)-1-{1-[4-(Difluoromethoxy)phenyl]ethyl}-6-hydroxy-3-(trifluoromethyl)-1,5-dihydro-4H-pyrazolo[3,4-d]pyrimidin-4-one]	629 nM
CC(c1ccc(OC(F)F)cc1)n1nc(C(F)(F)F)c2c(=O)[nH]c(O)nc21 (single isomer, unassigned) [Example 316, (S)- or (R)-1-{1-[4-(Difluoromethoxy)phenyl]ethyl}-6-hydroxy-3-(trifluoromethyl)-1,5-dihydro-4H-pyrazolo[3,4-d]pyrimidin-4-one]	6.1 nM
CC(c1ccc(C(C)(F)F)cc1)n1nc(C(F)(F)F)c2c(=O)[nH]c(O)nc21 (single isomer, unassigned) [Example 317, (R)- or (S)-1-(1-(4-(1,1-Difluoroethyl)phenyl)ethyl)-6-hydroxy-3-(trifluoromethyl)-1H-pyrazolo[3,4-d]pyrimidin-4(5H)-one]	326 nM
CC(c1ccc(C(C)(F)F)cc1)n1nc(C(F)(F)F)c2c(=O)[nH]c(O)nc21 (single isomer, unassigned) [Example 318, (S)- or (R)-1-(1-(4-(1,1-Difluoroethyl)phenyl)ethyl)-6-hydroxy-3-(trifluoromethyl)-1H-pyrazolo[3,4-d]pyrimidin-4(5H)-one]	3 nM
CC(c1ccc(CC(F)F)cc1)n1nc(C(F)(F)F)c2c(=O)[nH]c(O)nc21 (single isomer, unassigned) [Example 319, (R)- or (S)-1-(1-(4-(2,2-Difluoroethyl)phenyl)ethyl)-6-hydroxy-3-(trifluoromethyl)-1H-pyrazolo[3,4-d]pyrimidin-4(5H)-one]	590 nM
CC(c1ccc(CC(F)F)cc1)n1nc(C(F)(F)F)c2c(=O)[nH]c(O)nc21 (single isomer, unassigned) [Example 320, (S)- or (R)-1-(1-(4-(2,2-Difluoroethyl)phenyl)ethyl)-6-hydroxy-3-(trifluoromethyl)-1H-pyrazolo[3,4-d]pyrimidin-4(5H)-one]	13 nM
CC(c1ccc(OC(F)(F)F)c(Cl)c1)n1nc(C(F)(F)F)c2c(=O)[nH]c(O)nc21 (single isomer, unassigned) [Example 321, (R)- or (S)-1-(1-(3-Chloro-4-(trifluoromethoxy)phenyl)ethyl)-6-hydroxy-3-(trifluoromethyl)-1H-pyrazolo[3,4-d]pyrimidin-4(5H)-one]	145 nM
CC(c1ccc(OC(F)(F)F)c(Cl)c1)n1nc(C(F)(F)F)c2c(=O)[nH]c(O)nc21 (single isomer, unassigned) [Example 322, (S)- or (R)-1-(1-(3-Chloro-4-(trifluoromethoxy)phenyl)ethyl)-6-hydroxy-3-(trifluoromethyl)-1H-pyrazolo[3,4-d]pyrimidin-4(5H)-one]	9.3 nM
CC(c1ccc(OC(F)F)c(F)c1)n1nc(C(F)(F)F)c2c(=O)[nH]c(O)nc21 (single isomer, unassigned) [Example 323, (R)- or (S)-1-(1-(4-(Difluoromethoxy)-3-fluorophenyl)ethyl)-6-hydroxy-3-(trifluoromethyl)-1H-pyrazolo[3,4-d]pyrimidin-4(5H)-one]	304 nM
CC(c1ccc(OC(F)F)c(F)c1)n1nc(C(F)(F)F)c2c(=O)[nH]c(O)nc21 (single isomer, unassigned) [Example 324, (S)- or (R)-1-(1-(4-(Difluoromethoxy)-3-fluorophenyl)ethyl)-6-hydroxy-3-(trifluoromethyl)-1H-pyrazolo[3,4-d]pyrimidin-4(5H)-one]	6.8 nM
CC(c1ccc(OC(F)F)c(Cl)c1)n1nc(C(F)(F)F)c2c(=O)[nH]c(O)nc21 (single isomer, unassigned) [Example 325, (R)- or (S)-1-(1-(3-Chloro-4-(difluoromethoxy)phenyl)ethyl)-6-hydroxy-3-(trifluoromethyl)-1H-pyrazolo[3,4-d]pyrimidin-4(5H)-one]	529 nM
CC(c1ccc(OC(F)F)c(Cl)c1)n1nc(C(F)(F)F)c2c(=O)[nH]c(O)nc21 (single isomer, unassigned) [Example 326, (S)- or (R)-1-(1-(3-Chloro-4-(difluoromethoxy)phenyl)ethyl)-6-hydroxy-3-(trifluoromethyl)-1H-pyrazolo[3,4-d]pyrimidin-4(5H)-one]	16 nM
CC(c1ccc(C(F)(F)F)c(Cl)c1)n1nc(C(F)(F)F)c2c(=O)[nH]c(O)nc21 (single isomer, unassigned) [Example 327, (R)- or (S)-1-(1-(3-Chloro-4-(trifluoromethyl)phenyl)ethyl)-6-hydroxy-3-(trifluoromethyl)-1H-pyrazolo[3,4-d]pyrimidin-4(5H)-one]	382 nM
CC(c1ccc(C(F)(F)F)c(Cl)c1)n1nc(C(F)(F)F)c2c(=O)[nH]c(O)nc21 (single isomer, unassigned) [Example 328, (S)- or (R)-1-(1-(3-Chloro-4-(trifluoromethyl)phenyl)ethyl)-6-hydroxy-3-(trifluoromethyl)-1H-pyrazolo[3,4-d]pyrimidin-4(5H)-one]	3 nM
